According to patent publication US12377110B2, “Fospropofol methods and compositions” (Epalex Corporation, priority 2019, dated 2025):
Like-named read-outs stand apart in the source and are kept apart here.

Assay: Study A16 Part 1: PK of single ascending oral doses of fospropofol disodium (200 to 2000 mg), fasted healthy adults
Format: in vivo, human
Settings: for AUC(0-t) / AUC(0-inf) / half-life: both sexes; for AUC(0-t): read-out: Fospropofol AUC0-T; for AUC(0-inf): read-out: Fospropofol AUC0-∞; for half-life: read-out: Fospropofol t1/2 (converted); for Tmax: read-out: Fospropofol Tmax
Experimental: Part 1 of Study A16 was a double-blind, randomized, placebo-controlled study to investigate the safety-tolerability and PK of oral administration of single ascending doses of fospropofol disodium to healthy adult male and female volunteers.
Subjects were healthy adults (age 18-55 years inclusive, BMI 18-29.9 kg/m^2). Separate cohorts of 12 subjects each were randomized to receive fospropofol disodium at doses of 200, 400, 800, 1000, 1200, 1600, or 2000 mg (n=10 per cohort) or matching placebo (n=2 per cohort).
Subjects were admitted to the clinical unit for an overnight fast (Day −1), administered study drug on Day 1, and remained in the clinical unit until Day 2.
Fospropofol disodium was formulated as powder in an HPMC capsule, each capsule containing 200 mg of fospropofol disodium (weight adjusted for water content). Placebo was administered as an appropriate number of matching capsules.
Based on PK results from the early cohorts, sampling times were optimized beginning with Cohort 3 (800 mg) to preclose, 5, 10, 15, 20, 25, 30, 37, and 45, minutes and 1, 2, 4, 6, and 9 hours after closing.

[1] = human, plasma, oral fospropofol disodium 400 mg, mean
[2] = human, plasma, oral fospropofol disodium 800 mg, mean
[3] = human, plasma, oral fospropofol disodium 1000 mg, mean
[4] = human, plasma, oral fospropofol disodium 1200 mg, mean
[5] = human, plasma, oral fospropofol disodium 1600 mg, mean
[6] = human, plasma, oral fospropofol disodium 2000 mg, mean
[7] = oral fospropofol disodium 1200 mg, Fasted (Cohort 5), n = 10, mean
[8] = subjects 301-312 (800 mg cohort)

Structure (SMILES): CC(C)c1cccc(C(C)C)c1OCOP(=O)(O)O [fospropofol, (2,6-diisopropylphenoxy)methyl dihydrogen phosphate]
- AUC(0-t) [1]: 2200 ng·h/mL
- AUC(0-inf) [1]: 2230 ng·h/mL
- half-life [1]: 14.4 min
- AUC(0-t) [2]: 3290 ng·h/mL
- AUC(0-inf) [2]: 3360 ng·h/mL
- half-life [2]: 16.2 min
- AUC(0-t) [3]: 4700 ng·h/mL
- AUC(0-inf) [3]: 4840 ng·h/mL
- half-life [3]: 17.4 min
- AUC(0-t) [4]: 4400 ng·h/mL
- AUC(0-inf) [4]: 4500 ng·h/mL
- half-life [4]: 20.4 min
- AUC(0-t) [5]: 6090 ng·h/mL
- AUC(0-inf) [5]: 6300 ng·h/mL
- half-life [5]: 21 min
- AUC(0-t) [6]: 10800 ng·h/mL
- AUC(0-inf) [6]: 11000 ng·h/mL
- half-life [6]: 22.2 min
- Fospropofol concentration relative to Cmax (by 2 hours after dosing): less than 10 % of Cmax
- Fospropofol AUC0-T/mg FOSP DiNa (dose 200 mg FOSPDiNa): 4.28 (ng · h/mL)/mg
- Fospropofol AUC0-∞/mg FOSP DiNa (dose 200 mg FOSPDiNa): 4.41 (ng · h/mL)/mg
- Fospropofol Cmax/mg FOSP DiNa (dose 200 mg FOSPDiNa): 9.89 (ng/mL)/mg
- Fospropofol AUC0-T/mg FOSP DiNa (dose 400 mg FOSPDiNa): 5.51 (ng · h/mL)/mg
- Fospropofol AUC0-∞/mg FOSP DiNa (dose 400 mg FOSPDiNa): 5.58 (ng · h/mL)/mg
- Fospropofol Cmax/mg FOSP DiNa (dose 400 mg FOSPDiNa): 11.15 (ng/mL)/mg
- Fospropofol AUC0-T/mg FOSP DiNa (dose 800 mg FOSPDiNa): 4.11 (ng · h/mL)/mg
- Fospropofol AUC0-∞/mg FOSP DiNa (dose 800 mg FOSPDiNa): 4.20 (ng · h/mL)/mg
- Fospropofol Cmax/mg FOSP DiNa (dose 800 mg FOSPDiNa): 7.55 (ng/mL)/mg
- Fospropofol AUC0-T/mg FOSP DiNa (dose 1000 mg FOSPDiNa): 4.70 (ng · h/mL)/mg
- Fospropofol AUC0-∞/mg FOSP DiNa (dose 1000 mg FOSPDiNa): 4.85 (ng · h/mL)/mg
- Fospropofol Cmax/mg FOSP DiNa (dose 1000 mg FOSPDiNa): 8.24 (ng/mL)/mg
- Fospropofol AUC0-T/mg FOSP DiNa (dose 1200 mg FOSPDiNa): 3.67 (ng · h/mL)/mg
- Fospropofol AUC0-∞/mg FOSP DiNa (dose 1200 mg FOSPDiNa): 3.75 (ng · h/mL)/mg
- Fospropofol Cmax/mg FOSP DiNa (dose 1200 mg FOSPDiNa): 5.93 (ng/mL)/mg
- Fospropofol AUC0-T/mg FOSP DiNa (dose 1600 mg FOSPDiNa): 3.81 (ng · h/mL)/mg
- Fospropofol AUC0-∞/mg FOSP DiNa (dose 1600 mg FOSPDiNa): 3.94 (ng · h/mL)/mg
- Fospropofol Cmax/mg FOSP DiNa (dose 1600 mg FOSPDiNa): 6.40 (ng/mL)/mg
- Fospropofol AUC0-T/mg FOSP DiNa (dose 2000 mg FOSPDiNa): 5.41 (ng · h/mL)/mg
- Fospropofol AUC0-∞/mg FOSP DiNa (dose 2000 mg FOSPDiNa): 5.49 (ng · h/mL)/mg
- Fospropofol Cmax/mg FOSP DiNa (dose 2000 mg FOSPDiNa): 8.54 (ng/mL)/mg
- AUC (female, human, plasma, oral, 800 mg, females only (800 mg cohort), Mean, read-out: Fospropofol Auc1): 3050 ng·h/mL
- AUC (female, human, plasma, oral, 800 mg, females only (800 mg cohort), Mean, read-out: Fospropofol Auc2): 3710 ng·h/mL
- AUC (female, human, plasma, oral, 800 mg, females only (800 mg cohort), Mean, read-out: Fospropofol Auc4): 3870 ng·h/mL
- Cmax (female, human, plasma, oral, 800 mg, females only (800 mg cohort), Mean, read-out: Fospropofol Cmax): 6730 ng/mL
- Tmax (female, human, plasma, oral, 800 mg, females only (800 mg cohort), Mean): 22.2 min
- AUC (female, human, plasma, oral, 800 mg, females only (800 mg cohort), individual subjects (Subject No. in c0), read-out: Fospropofol Auc1): 4160 ng·h/mL
- AUC (female, human, plasma, oral, 800 mg, females only (800 mg cohort), individual subjects (Subject No. in c0), read-out: Fospropofol Auc2): 5000 ng·h/mL
- AUC (female, human, plasma, oral, 800 mg, females only (800 mg cohort), individual subjects (Subject No. in c0), read-out: Fospropofol Auc4): 5160 ng·h/mL
- Tmax (female, human, plasma, oral, 800 mg, females only (800 mg cohort), individual subjects (Subject No. in c0)): 30 min
- Fospropofol Auc1 CV (%) (females only (800 mg cohort)): 23.3%
- Fospropofol Auc2 CV (%) (females only (800 mg cohort)): 23.1%
- Fospropofol Auc4 CV (%) (females only (800 mg cohort)): 23.3%
- Fospropofol Cmax CV (%) (females only (800 mg cohort)): 32.2%
- Fospropofol Tmax CV (%) (females only (800 mg cohort)): 27.3%
- Fospropofol CL/F (oral fospropofol disodium 200 mg, mean): 277 L/h
- Fospropofol CL/F (oral fospropofol disodium 400 mg, mean): 211 L/h
- Fospropofol CL/F (oral fospropofol disodium 800 mg, mean): 254 L/h
- Fospropofol CL/F (oral fospropofol disodium 1000 mg, mean): 229 L/h
- Fospropofol AUC0-T [7]: 4399 ng·h/mL
- Fospropofol CL/F [7]: 288 L/h
- Fospropofol CL/F (oral fospropofol disodium 1200 mg, mean): 288 L/h
- Fospropofol CL/F (oral fospropofol disodium 1600 mg, mean): 270 L/h
- Fospropofol CL/F (oral fospropofol disodium 2000 mg, mean): 204 L/h
- Fospropofol AUC1 CV (%) [8]: 23.6%
- Fospropofol AUC2 CV (%) [8]: 26.0%
- Fospropofol AUC4 CV (%) [8]: 27.2%
- Fospropofol Cmax CV (%) [8]: 30.7%
- Fospropofol Tmax CV (%) [8]: 29.2%
